Reference: patent US20180282403A1, “AGENTS FOR REDUCING THE ACTIVITY OF GDF15” (GENAGON THERAPEUTICS AB, priority 2015, published 2018)

Legend:
CD14+ cells = assay: Cytokine secretion by LPS-stimulated CD14+ cells (Proseek assay); assay type: cell-based; conditions: LPS stimulated CD14+ cells incubated with GDF15
Description: CD14+ cells where isolated and cultured in the presence or absence of GDF15 in a LPS stimulated culture.
Buffy coat cell suspension or heparinized blood samples were diluted with sterile, room temperature PBS. Peripheral blood samples are diluted 1:1, whereas buffy coats are diluted to a final volume of 120 ml (in a standard buffy coat this will result in slightly greater dilution than 1:1). The diluted cell suspension was layered onto Ficoll Paque PLUS. For one buffy 4×15 ml aliquots are used (30 ml of diluted cell suspension/tube). Cells were centrifuged at 400×g for 30 min at room temperature and transferred to a new 50 ml tube. Cells were washed once and resuspended in 20 ml PBS.
Mononuclear cell suspension was pelleted by centrifugation. Cells were resuspended in Stemcell buffer at a concentration of 10^8 cells/ml and transferred to a round bottom 14 ml tube. EasySep Positive Selection cocktail at was added at 100 μl/ml cells, mixed by gentle pipetting, and incubated at room temperature for 15 min. 50 μl EasySep Magnetic Nanoparticles per 1 ml cells were added and mixed, and incubated at room temperature for 10 min. Stemcell recommended medium was added to bring the cell suspension to a total volume of 5 ml and mixed by gently pipetting. The tube (without cap) was placed into the magnet and set aside for 5 min. After 5 minutes the supernatant was discarded. CD14+ labelled cells will remain inside the tube. The tube was removed from the magnet and add 5 ml Stemcell recommended medium was added and mixed by gently pipetting. The tube (without cap) was placed into the magnet and set aside for 5 min. The was step was repeated before the cells were resuspended in 5 ml complete RPMI medium. 50 μl of the CD14+ cell suspension was removed and counted to determine total cell number after dilution in Trypan blue solution and mounting on Fast Read 102 Counting Slides.
Adjust CD14+ cell suspension volume to a concentration of 0.833×10^6 cells/ml in complete RPMI medium. 300 μl of cell suspension is added to wells in a 48 well plate well (0.25×10^6 cells per well), and allowed to adhere for 90 min in an incubator at 37° C. Non-adherent cells were removed by removal of the supernatant after gently pipetting the medium. Cells were washed once with 300 μl pre-warmed complete RPMI medium and the medium aspirated off. 300 μl pre-warmed complete RPMI medium was added to each well and the cells were incubate overnight (20-24 h) in a cell incubator at 37° C.
A 17× stock solution of the desired GDF15 modulatory substances was diluted in complete RPMI. (20 μl of substance/well assayed). 20 μl of modulatory substance or medium/carrier (negative control) was added to each well and mixed by gentle pipetting. Cells were incubated for 30 min in a cell incubator at 37° C. A 17×GDF15 solution was prepared by diluting a 100 μg/ml stock solution to a concentration of 8.5 μg/ml (final concentration in culture 0.5 μg/ml) in complete RPMI. 20 μl of diluted GDF15 was added per well, and incubated overnight (18-20 h) in a cell incubator at 37° C.
A 18×LPS solution was prepared by diluting the LPS stock solution to a concentration of 18 ng/ml (final concentration in culture 1 ng/ml) in complete RPMI. 20 μl of LPS or medium (negative control) was added to each well and mixed by gentle pipetting. […]
Secreted proteins from cell cultures where quantified using multiplexed proximity extension assay, Proseek (Assarsson E et al PlosOne 2014) by Olink Proteomics AB (Uppsala Sweden). […]

CLPTM1 = target: T1, CLPTM1 (Homo sapiens, UniProt O96005); assay: In situ PLA detection of the CLPTM1-TGFBRII complex in NK cells; assay type: cell-based; conditions: GDF15 treatment; FIG. 15
T1 construct: endogenous in cells; host or cells: NK-92 cells
T1 sequence (O96005 1-669): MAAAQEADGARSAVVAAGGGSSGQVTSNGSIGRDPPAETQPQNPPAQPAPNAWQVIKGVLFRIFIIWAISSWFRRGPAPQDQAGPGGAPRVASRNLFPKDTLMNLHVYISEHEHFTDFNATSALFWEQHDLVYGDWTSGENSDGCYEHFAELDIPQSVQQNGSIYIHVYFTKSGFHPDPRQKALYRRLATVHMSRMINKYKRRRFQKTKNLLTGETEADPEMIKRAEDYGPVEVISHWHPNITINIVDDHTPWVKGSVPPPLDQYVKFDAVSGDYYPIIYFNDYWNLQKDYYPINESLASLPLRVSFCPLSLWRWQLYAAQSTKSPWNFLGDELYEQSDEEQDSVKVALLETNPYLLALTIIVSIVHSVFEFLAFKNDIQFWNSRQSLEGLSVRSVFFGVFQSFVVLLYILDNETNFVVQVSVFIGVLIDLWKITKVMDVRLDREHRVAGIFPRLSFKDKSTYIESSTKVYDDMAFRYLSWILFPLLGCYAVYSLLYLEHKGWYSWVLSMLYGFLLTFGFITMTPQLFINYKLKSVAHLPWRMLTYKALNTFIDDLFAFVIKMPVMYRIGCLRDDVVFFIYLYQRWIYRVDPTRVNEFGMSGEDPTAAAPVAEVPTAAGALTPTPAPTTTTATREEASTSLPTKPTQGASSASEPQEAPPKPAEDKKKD
Text: It was not known whether TGFBRI localised with CLPTM1 independently from the corresponding Type II receptor TGFBRII, or whether the TGFBRI-TGFBRII heterocomplex associated with CLPTM1 upon GDF15 stimulation. In order to determine this, a second in situ PLA assay was developed, using antibodies towards TGFBRII in concert with CLPTM1 antibodies from another species. […] (FIG. 15)

GDF15: Growth and differentiation factor 15, from mammalian source or recombinant from E. coli (Abcam, Biovision)
LPS response secretion of IL12 (CD14+ cells): reduced | LPS response secretion of TNF (CD14+ cells): reduced | CLPTM1 proximity to TGFBRII (CLPTM1): induced CLPTM1 proximity to TGFBRII
